In patent US20230372433A1, “NANOPARTICLE FOR ANTI-CANCER PEPTIDES AND USES THEREOF” (KING'S COLLEGE LONDON, priority 2020, published 2023):
Where two headings read alike, the source gives them in different places. [ ]: non-standard residue; d: D form.

Assays:
[1] = tested on: HEK293T (human embryonic kidney cell); experiment: MTT cytotoxicity assay, HEK293T; format: cell-based; settings: read-out: IC50 HEK293T
[2] = tested on: MCF-10A (human breast epithelial cell); experiment: cells; settings: read-out: IC50 MCF-10A
[3] = tested on: HMLER (human breast cancer bulk cell); experiment: MTT cytotoxicity assay, HMLER; format: cell-based; settings: read-out: IC50 HMLER
[4] = tested on: HMLER-shEcad mammospheres; experiment: Tumoursphere formation and viability assay; format: cell-based, human
[5] = tested on: HMLER-shEcad (human breast cancer stem cell); experiment: MTT cytotoxicity assay, HMLER-shEcad; format: cell-based
[6] = tested on: HMLER-shEcad cells; experiment: HMLER-shEcad viability with co-incubated necrostatin or z-VAD-FMK; format: cell-based, human
[7] = tested on: U2OS (human bone osteosarcoma); experiment: MTT cytotoxicity assay, U2OS; format: cell-based; settings: 72 hr
[8] = Tryptophan fluorescent binding assay, 3POPC/1POPG vesicles; settings: 50 μM peptide, PBS pH 7.4
How it was run: (§1)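 Tryptophan fluorescence was measured with peptide fixed at 50 μM and POPC or 3POPC/1POPG LUVs (100 nm extruded) titrated 0–5000 μM in PBS pH 7.4, read after 60 min. Excitation was 280 nm and emission 300–450 nm. The value is the lipid concentration giving 50% peptide binding, expressed as lipid per peptide.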

[9] = Tryptophan fluorescent binding assay, POPC vesicles; settings: 50 μM peptide, PBS pH 7.4
How it was run: as §1

[10] = ANTS/DPX liposome leakage assay, 3POPC/1POPG vesicles; format: biochemical; settings: 0.5 mM vesicles
How it was run: (§2)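 0.5 mM extruded 100 nm LUVs loaded with 5 mM ANTS/12.5 mM DPX were incubated 3 h with peptide at 0–20 μM in PBS pH 7.4 or HCl-adjusted PBS pH 4.8. Fluorescence read at ex 350/em 510 nm; 10% Triton set maximum leakage; values expressed as lipid per peptide.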

[11] = ANTS/DPX liposome leakage assay, POPC vesicles; format: biochemical; settings: 0.5 mM vesicles
How it was run: as §2

[12] = 72 hr, MTT, read-out: IC50 HMLER-shEcad

Compound: CC[C@@H](C(=O)[C@@H](C)[C@@H](O)[C@H](C)[C@@H]1O[C@@H]([C@@H](CC)C(=O)O)CC[C@@H]1C)[C@H]1O[C@]2(C=C[C@@H](O)[C@]3(CC[C@@](C)([C@H]4CC[C@](O)(CC)[C@H](C)O4)O3)O2)[C@H](C)C[C@@H]1C [Salinomycin, reference compound]
- IC50 ([1]; Homo sapiens, HEK-293T, 72 h): 0.41 ± 0.1 µM
- IC50 ([2]; Homo sapiens, MCF-10A, 72 h): 9.76 ± 2.28 µM
- IC50 ([3]; Homo sapiens, 72 h): 0.37 ± 0.08 µM
- fold decrease in activity, mammospheres versus two-dimensional HMLER-shEcad [4]: 63 fold
- IC50 ([4]; Homo sapiens, read-out: IC50 in mammospheres): 22 ± 5 µM
- IC50 ([5]; Homo sapiens, 72 h, read-out: IC50 HMLER-shEcad): 0.92 ± 0.28 µM
- IC50 ([5]; Homo sapiens, read-out: IC50 against two-dimensional HMLER-shEcad): 0.37 ± 0.0005 µM

Compound: D-form peptide of the selected sequence EEK (GLLELLELLLKAAGW) (H-G[dL][dL][dE][dL][dL][dE][dL][dL][dL][dK][dA][dA]G[dW]-NH2) [D-form EEK]
- IC50 ([1]; 72 hr, MTT): 2.82 ± 0.07 µM
- IC50 ([2]; 72 hr, MTT): 1.07 ± 0.1 µM
- IC50 ([3]; 72 hr, MTT): 0.29 ± 0.01 µM
- cell viability on co-incubation with necrostatin or z-VAD-FMK [6]: cannot be improved
- IC50 [5, 12]: 0.29 ± 0.01 µM
- IC50 [7]: 4.78 ± 0.02 µM

Compound: GLLHLLKLLLKAAG [HKK]
- Lipid Concentration-induced 50% Peptide Binding (L/P) 3POPC/1POPG Vesicle [8]: 0.14 L/P
- IC50 ([1]; 72 hr, MTT): 9.5 ± 0.99 µM
- IC50 ([2]; 72 hr, MTT): 2.18 ± 0.39 µM
- IC50 ([3]; 72 hr, MTT): 3.4 ± 0.71 µM
- Lipid Concentration-induced 50% Peptide Binding (L/P) POPC Vesicle [9]: 0.18 L/P
- Peptide Concentration-induced 50% ANTS/DPX leakage at pH 4.8 (L/P) 3POPC/1POPG Vesicle [10]: 106 L/P
- Peptide Concentration-induced 50% ANTS/DPX leakage at pH 7.4 (L/P) 3POPC/1POPG Vesicle [10]: 90 L/P
- Peptide Concentration-induced 50% ANTS/DPX leakage at pH 4.8 (L/P) POPC Vesicle [11]: 106 L/P
- Peptide Concentration-induced 50% ANTS/DPX leakage at pH 7.4 (L/P) POPC Vesicle [11]: 657 L/P
- IC50 [5, 12]: 2.6 ± 0.42 µM
- IC50 [7]: 12.23 ± 0.11 µM

Compound: GLLKLLELLLHAAG [KEH]
- Lipid Concentration-induced 50% Peptide Binding (L/P) 3POPC/1POPG Vesicle [8]: 0.50 L/P
- IC50 ([1]; 72 hr, MTT): 5.65 ± 0.07 µM
- IC50 ([2]; 72 hr, MTT): 20 µM
- IC50 ([3]; 72 hr, MTT): 3.3 ± 0.42 µM
- Lipid Concentration-induced 50% Peptide Binding (L/P) POPC Vesicle [9]: 1.00 L/P
- Peptide Concentration-induced 50% ANTS/DPX leakage at pH 4.8 (L/P) 3POPC/1POPG Vesicle [10]: 68 L/P
- Peptide Concentration-induced 50% ANTS/DPX leakage at pH 7.4 (L/P) 3POPC/1POPG Vesicle [10]: 286 L/P
- Peptide Concentration-induced 50% ANTS/DPX leakage at pH 4.8 (L/P) POPC Vesicle [11]: 188 L/P
- Peptide Concentration-induced 50% ANTS/DPX leakage at pH 7.4 (L/P) POPC Vesicle [11]: 995 L/P
- IC50 [5, 12]: 2.35 ± 0.07 µM
- IC50 [7]: 49.2 ± 5.3 µM

Compound: GLLKLLELLLKAAG [KEK]
- Lipid Concentration-induced 50% Peptide Binding (L/P) 3POPC/1POPG Vesicle [8]: 0.50 L/P
- IC50 ([1]; 72 hr, MTT): 3.2 ± 0.14 µM
- IC50 ([2]; 72 hr, MTT): 1.55 ± 0.07 µM
- IC50 ([3]; 72 hr, MTT): 1.6 ± 0.14 µM
- Lipid Concentration-induced 50% Peptide Binding (L/P) POPC Vesicle [9]: 0.47 L/P
- Peptide Concentration-induced 50% ANTS/DPX leakage at pH 4.8 (L/P) 3POPC/1POPG Vesicle [10]: 126 L/P
- Peptide Concentration-induced 50% ANTS/DPX leakage at pH 7.4 (L/P) 3POPC/1POPG Vesicle [10]: 438 L/P
- Peptide Concentration-induced 50% ANTS/DPX leakage at pH 4.8 (L/P) POPC Vesicle [11]: 110 L/P
- Peptide Concentration-induced 50% ANTS/DPX leakage at pH 7.4 (L/P) POPC Vesicle [11]: 1173 L/P
- IC50 [5, 12]: 1.35 ± 0.07 µM
- IC50 [7]: 8.15 ± 0.49 µM

Compound: GLLKLLHLLLEAAG [KHE]
- Lipid Concentration-induced 50% Peptide Binding (L/P) 3POPC/1POPG Vesicle [8]: 0.71 L/P
- IC50 ([1]; 72 hr, MTT): 26 ± 2.83 µM
- IC50 ([2]; 72 hr, MTT): 20.9 ± 5.87 µM
- IC50 ([3]; 72 hr, MTT): 3.7 ± 0.14 µM
- Lipid Concentration-induced 50% Peptide Binding (L/P) POPC Vesicle [9]: 0.88 L/P
- Peptide Concentration-induced 50% ANTS/DPX leakage at pH 4.8 (L/P) 3POPC/1POPG Vesicle [10]: 156 L/P
- Peptide Concentration-induced 50% ANTS/DPX leakage at pH 7.4 (L/P) 3POPC/1POPG Vesicle [10]: 188 L/P
- Peptide Concentration-induced 50% ANTS/DPX leakage at pH 4.8 (L/P) POPC Vesicle [11]: 183 L/P
- Peptide Concentration-induced 50% ANTS/DPX leakage at pH 7.4 (L/P) POPC Vesicle [11]: 981 L/P
- IC50 [5, 12]: 2.92 ± 0.17 µM
- IC50 [7]: 53 ± 2.83 µM

Compound: GLLKLLHLLLHAAG [KHH]
- Lipid Concentration-induced 50% Peptide Binding (L/P) 3POPC/1POPG Vesicle [8]: 0.94 L/P
- IC50 ([1]; 72 hr, MTT): 7.75 ± 0.78 µM
- IC50 ([2]; 72 hr, MTT): 10.3 ± 0.49 µM
- IC50 ([3]; 72 hr, MTT): 5.2 ± 0.71 µM
- Lipid Concentration-induced 50% Peptide Binding (L/P) POPC Vesicle [9]: 3.50 L/P
- Peptide Concentration-induced 50% ANTS/DPX leakage at pH 4.8 (L/P) 3POPC/1POPG Vesicle [10]: 48 L/P
- Peptide Concentration-induced 50% ANTS/DPX leakage at pH 7.4 (L/P) 3POPC/1POPG Vesicle [10]: 329 L/P
- Peptide Concentration-induced 50% ANTS/DPX leakage at pH 4.8 (L/P) POPC Vesicle [11]: 227 L/P
- Peptide Concentration-induced 50% ANTS/DPX leakage at pH 7.4 (L/P) POPC Vesicle [11]: 1153 L/P
- IC50 [5, 12]: 4.45 ± 0.49 µM
- IC50 [7]: 39.8 ± 5.3 µM

Compound: GLLKLLHLLLKAAG [KHK]
- Lipid Concentration-induced 50% Peptide Binding (L/P) 3POPC/1POPG Vesicle [8]: 0.38 L/P
- IC50 ([1]; 72 hr, MTT): 3.55 ± 0.78 µM
- IC50 ([2]; 72 hr, MTT): 1.81 ± 0.05 µM
- IC50 ([3]; 72 hr, MTT): 2.59 ± 0.92 µM
- Lipid Concentration-induced 50% Peptide Binding (L/P) POPC Vesicle [9]: 0.17 L/P
- Peptide Concentration-induced 50% ANTS/DPX leakage at pH 4.8 (L/P) 3POPC/1POPG Vesicle [10]: 53 L/P
- Peptide Concentration-induced 50% ANTS/DPX leakage at pH 7.4 (L/P) 3POPC/1POPG Vesicle [10]: 193 L/P
- Peptide Concentration-induced 50% ANTS/DPX leakage at pH 4.8 (L/P) POPC Vesicle [11]: 140 L/P
- Peptide Concentration-induced 50% ANTS/DPX leakage at pH 7.4 (L/P) POPC Vesicle [11]: 1153 L/P
- IC50 [5, 12]: 1.4 ± 0.14 µM
- IC50 [7]: 12.9 ± 1.24 µM

Compound: GLLKLLKLLLEAAG [KKE]
- Lipid Concentration-induced 50% Peptide Binding (L/P) 3POPC/1POPG Vesicle [8]: 0.44 L/P
- IC50 ([1]; 72 hr, MTT): 4.4 ± 0.14 µM
- IC50 ([2]; 72 hr, MTT): 2.9 ± 0.57 µM
- IC50 ([3]; 72 hr, MTT): 2.05 ± 0.64 µM
- Lipid Concentration-induced 50% Peptide Binding (L/P) POPC Vesicle [9]: 0.48 L/P
- Peptide Concentration-induced 50% ANTS/DPX leakage at pH 4.8 (L/P) 3POPC/1POPG Vesicle [10]: 131 L/P
- Peptide Concentration-induced 50% ANTS/DPX leakage at pH 7.4 (L/P) 3POPC/1POPG Vesicle [10]: 346 L/P
- Peptide Concentration-induced 50% ANTS/DPX leakage at pH 4.8 (L/P) POPC Vesicle [11]: 143 L/P
- Peptide Concentration-induced 50% ANTS/DPX leakage at pH 7.4 (L/P) POPC Vesicle [11]: 1133 L/P
- IC50 [5, 12]: 1.7 µM
- IC50 [7]: 12.8 ± 1.2 µM

Compound: GLLKLLKLLLHAAG [KKH]
- Lipid Concentration-induced 50% Peptide Binding (L/P) 3POPC/1POPG Vesicle [8]: 0.48 L/P
- IC50 ([1]; 72 hr, MTT): 4 ± 0.28 µM
- IC50 ([2]; 72 hr, MTT): 1.75 ± 0.35 µM
- IC50 ([3]; 72 hr, MTT): 2.4 ± 0.85 µM
- Lipid Concentration-induced 50% Peptide Binding (L/P) POPC Vesicle [9]: 0.83 L/P
- Peptide Concentration-induced 50% ANTS/DPX leakage at pH 4.8 (L/P) 3POPC/1POPG Vesicle [10]: 49 L/P
- Peptide Concentration-induced 50% ANTS/DPX leakage at pH 7.4 (L/P) 3POPC/1POPG Vesicle [10]: 227 L/P
- Peptide Concentration-induced 50% ANTS/DPX leakage at pH 4.8 (L/P) POPC Vesicle [11]: 164 L/P
- Peptide Concentration-induced 50% ANTS/DPX leakage at pH 7.4 (L/P) POPC Vesicle [11]: 2119 L/P
- IC50 [5, 12]: 2.2 ± 0.42 µM
- IC50 [7]: 13.3 ± 0.99 µM

Compound: GLLKLLKLLLKAAG [KKK]
- Lipid Concentration-induced 50% Peptide Binding (L/P) 3POPC/1POPG Vesicle [8]: 1.70 L/P
- IC50 ([1]; 72 hr, MTT): 3.7 ± 0.14 µM
- IC50 ([2]; 72 hr, MTT): 1.37 ± 0.24 µM
- IC50 ([3]; 72 hr, MTT): 1.57 ± 0.24 µM
- Lipid Concentration-induced 50% Peptide Binding (L/P) POPC Vesicle [9]: 1.25 L/P
- Peptide Concentration-induced 50% ANTS/DPX leakage at pH 4.8 (L/P) 3POPC/1POPG Vesicle [10]: 81 L/P
- Peptide Concentration-induced 50% ANTS/DPX leakage at pH 7.4 (L/P) 3POPC/1POPG Vesicle [10]: 115 L/P
- Peptide Concentration-induced 50% ANTS/DPX leakage at pH 4.8 (L/P) POPC Vesicle [11]: 156 L/P
- Peptide Concentration-induced 50% ANTS/DPX leakage at pH 7.4 (L/P) POPC Vesicle [11]: 1369 L/P
- IC50 [5, 12]: 1.35 ± 0.4 µM
- IC50 [7]: 9.65 ± 1.2 µM
